Data taken from patent US5358951A, “Angiotensin II receptor blocking 2, 3, 6 substituted quinazolinones” (American Cyanamid Company, priority 1993, dated 1994).
Counter-ions that a name gives are not always drawn.

Test system: vasopressor response of angiotensin II
Assay: AII Challenge: antagonism of angiotensin II vasopressor response;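 as to Response Average Change: post-dose Angiotensin II-evoked rise in systolic blood pressure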
Type: in vivo
Details: for inhibition in vivo at 0.5 mg/kg: 0.5 mg/kg i.v.; for inhibition in vivo at 0.3 mg/kg: 0.3 mg/kg i.v.
Outline: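 Conscious male SHR (16-20 weeks) with aortic and caval cannulae received angiotensin II at 0.05 and 0.1 ug/kg i.v. before and 30-300 min after compound dosing (i.v., i.p. or oral). Blockade is expressed as % of each rat's predose rise in systolic pressure.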

[1] = 1 mg/kg P.O., AII 0.05 mcg/kg IV, 30 min post dose, sodium salt
[2] = 1 mg/kg P.O., AII 0.05 mcg/kg IV, 90 min post dose, sodium salt
[3] = 1 mg/kg P.O., AII 0.05 mcg/kg IV, 180 min post dose, sodium salt
[4] = 1 mg/kg P.O., AII 0.05 mcg/kg IV, 240 min post dose, sodium salt
[5] = 1 mg/kg P.O., AII 0.1 mcg/kg IV, 30 min post dose, sodium salt
[6] = 1 mg/kg P.O., AII 0.1 mcg/kg IV, 240 min post dose, sodium salt
[7] = Rattus norvegicus, iv, […], AII 0.1 mcg/kg IV, 90 min post dose

CCCCc1nc2ccc([C@@]3(C)C[C@@H]4CCCN4O3)cc2c(=O)n1Cc1ccc(-c2ccccc2-c2nnn[nH]2)cc1 (relative stereo) [Example 73, Cis-2-Butyl-6-(hexahydro-2-methylpyrrolo[1,2-b]isoxazol-2-yl)-3-[[2'-(1H-(tetrazol-5-yl)[1,1'-biphenyl-4-yl]methyl]-4(3H)-quinazolinone sodium salt]
% Inhibition [1]: 31% | Response Average Change [1]: 22.5 mmHg | Response Average Change (1 mg/kg P.O., AII 0.05 mcg/kg IV, 60 min post dose, sodium salt): 12.5 mmHg | % Inhibition [2]: 38% | Response Average Change [2]: 20 mmHg | Response Average Change (1 mg/kg P.O., AII 0.05 mcg/kg IV, 120 min post dose, sodium salt): 12.5 mmHg | % Inhibition [3]: 23% | Response Average Change [3]: 25 mmHg | % Inhibition [4]: 15% | Response Average Change [4]: 27.5 mmHg | Response Average Change (1 mg/kg P.O., AII 0.05 mcg/kg IV, 300 min post dose): 25 mmHg | % Inhibition [5]: 27% | Response Average Change [5]: 27.5 mmHg | Response Average Change (1 mg/kg P.O., AII 0.1 mcg/kg IV, 60 min post dose, sodium salt): 20 mmHg | Response Average Change (1 mg/kg P.O., AII 0.1 mcg/kg IV, 90 min post dose, sodium salt): 22.5 mmHg | Response Average Change (1 mg/kg P.O., AII 0.1 mcg/kg IV, 120 min post dose): 22.5 mmHg | Response Average Change (1 mg/kg P.O., AII 0.1 mcg/kg IV, 180 min post dose, sodium salt): 22.5 mmHg | % Inhibition [6]: 33% | Response Average Change [6]: 25 mmHg | Response Average Change (1 mg/kg P.O., AII 0.1 mcg/kg IV, 300 min post dose): 22.5 mmHg | % Inhibition (1 mg/kg i.v., AII 0.05 mcg/kg IV, 60 min post dose): 83% | inhibition in vivo at 0.5 mg/kg (Rattus norvegicus, iv, 0.5 h, AII 0.05 mcg/kg IV, 30 min post dose): 73% | inhibition in vivo at 0.5 mg/kg (Rattus norvegicus, iv, 0.5 h, AII 0.1 mcg/kg IV, 30 min post dose): 67% | inhibition in vivo at 1 mg/kg (Rattus norvegicus, iv, 0.5 h, 1 mg/kg i.v., AII 0.05 mcg/kg IV, 30 min post dose): 83% | inhibition in vivo at 1 mg/kg (Rattus norvegicus, iv, 0.5 h, 1 mg/kg i.v., AII 0.1 mcg/kg IV, 30 min post dose): 74% | inhibition in vivo at 0.1 mg/kg (Rattus norvegicus, iv, 1 h, 0.1 mg/kg i.v., AII 0.05 mcg/kg IV, 60 min post dose): 40% | inhibition in vivo at 0.3 mg/kg (Rattus norvegicus, iv, 1 h, AII 0.1 mcg/kg IV, 60 min post dose): 25% | inhibition in vivo at 0.5 mg/kg (Rattus norvegicus, iv, 1 h, AII 0.05 mcg/kg IV, 60 min post dose): 71% | inhibition in vivo at 1 mg/kg (Rattus norvegicus, iv, 1 h, 1 mg/kg i.v., AII 0.05 mcg/kg IV, 60 min post dose): 83% | inhibition in vivo at 1 mg/kg (Rattus norvegicus, iv, 1 h, 1 mg/kg i.v., AII 0.1 mcg/kg IV, 60 min post dose): 65% | inhibition in vivo at 0.3 mg/kg (Rattus norvegicus, iv, 2 h, AII 0.05 mcg/kg IV, 120 min post dose): 41% | inhibition in vivo at 0.3 mg/kg (Rattus norvegicus, iv, 2 h, AII 0.1 mcg/kg IV, 120 min post dose): 38% | inhibition in vivo at 1 mg/kg (Rattus norvegicus, iv, 2 h, 1 mg/kg i.v., AII 0.05 mcg/kg IV, 120 min post dose): 83% | inhibition in vivo at 1 mg/kg (Rattus norvegicus, iv, 2 h, 1 mg/kg i.v., AII 0.1 mcg/kg IV, 120 min post dose): 86% | inhibition in vivo at 0.3 mg/kg (Rattus norvegicus, iv, 3 h, AII 0.05 mcg/kg IV, 180 min post dose): 36% | inhibition in vivo at 1 mg/kg (Rattus norvegicus, iv, 3 h, 1 mg/kg i.v., AII 0.05 mcg/kg IV, 180 min post dose): 72% | inhibition in vivo at 1 mg/kg (Rattus norvegicus, iv, 3 h, 1 mg/kg i.v., AII 0.1 mcg/kg IV, 180 min post dose): 42% | inhibition in vivo at 0.3 mg/kg (Rattus norvegicus, iv, 4 h, AII 0.05 mcg/kg IV, 240 min post dose): 23% | inhibition in vivo at 0.5 mg/kg (Rattus norvegicus, iv, 4 h, AII 0.1 mcg/kg IV, 240 min post dose): 39% | inhibition in vivo at 1 mg/kg (Rattus norvegicus, iv, 4 h, 1 mg/kg i.v., AII 0.1 mcg/kg IV, 240 min post dose): 74% | inhibition in vivo at 1 mg/kg (Rattus norvegicus, iv, 5 h, 1 mg/kg i.v., AII 0.05 mcg/kg IV, 300 min post dose): 50% | inhibition in vivo at 1 mg/kg (Rattus norvegicus, iv, 5 h, 1 mg/kg i.v., AII 0.1 mcg/kg IV, 300 min post dose): 60% | inhibition in vivo at 0.3 mg/kg (Rattus norvegicus, iv, […], AII 0.05 mcg/kg IV, 90 min post dose): 48% | inhibition in vivo at 0.3 mg/kg [7]: 29% | inhibition in vivo at 0.5 mg/kg [7]: 50% | inhibition in vivo at 1 mg/kg (Rattus norvegicus, iv, […], 1 mg/kg i.v., AII 0.05 mcg/kg IV, 90 min post dose): 83% | inhibition in vivo at 1 mg/kg (Rattus norvegicus, iv, […], 1 mg/kg i.v., AII 0.1 mcg/kg IV, 90 min post dose): 79% | inhibition in vivo at 1 mg/kg (Rattus norvegicus, po, 1 h, 1 mg/kg P.O., AII 0.05 mcg/kg IV, 60 min post dose): 62% | inhibition in vivo at 1 mg/kg (Rattus norvegicus, po, 1 h, 1 mg/kg P.O., AII 0.1 mcg/kg IV, 60 min post dose): 47% | inhibition in vivo at 1 mg/kg (Rattus norvegicus, po, 2 h, 1 mg/kg P.O., AII 0.05 mcg/kg IV, 120 min post dose): 62% | inhibition in vivo at 1 mg/kg (Rattus norvegicus, po, 2 h, 1 mg/kg P.O., AII 0.1 mcg/kg IV, 120 min post dose): 40% | inhibition in vivo at 1 mg/kg (Rattus norvegicus, po, 3 h, 1 mg/kg P.O., AII 0.1 mcg/kg IV, 180 min post dose): 40% | inhibition in vivo at 1 mg/kg (Rattus norvegicus, po, 5 h, 1 mg/kg P.O., AII 0.05 mcg/kg IV, 300 min post dose): 23% | inhibition in vivo at 1 mg/kg (Rattus norvegicus, po, 5 h, 1 mg/kg P.O., AII 0.1 mcg/kg IV, 300 min post dose): 40% | inhibition in vivo at 1 mg/kg (Rattus norvegicus, po, […], 1 mg/kg P.O., AII 0.1 mcg/kg IV, 90 min post dose): 40%
